Experimental data as given in patent US11317632B2, “Materials amd methods for buffering active chlorine solutions” (Pharmocon LLC, priority 2017, dated 2022).
Like-named read-outs stand apart in the source and are kept apart here.

Assays:
[1] = Titration curves of buffers with standardized 0.1 N NaOH or HCl, pH meter; format: physicochemical; conditions: for pKa: distilled water; for buffering range in the presence of magnesium: magnesium added
Experimental: Aqueous solutions containing chlorine and/or hypochlorous acid are referred to herein as free active chlorine or “FAC” solutions, regardless of their method of preparation and without regard to other species that may be present. Concentrations of HOCl are reported herein as ppm active chlorine, as determined by colorimetry using N,N-diethyl-p-phenylenediamine (DPD) as indicator. Samples were diluted 999:1 with distilled water prior to addition of a DPD-1 tablet (Pollardwater, New Hyde Park, N.Y.) to a 10-ml sample, and the value for ppm chlorine was determined with a colorimeter (MW-10, Milwaukee Instruments, Rocky Mount, N.C.) Chloride concentrations were determined by agentometric (Mohr) titration. Titration curves were determined by dissolving 40 mg of buffer in 20 ml distilled water and adding standardized 0.1 N NaOH or HCl, with pH measured with a digital pH meter calibrated daily at pH 4.0. New and known buffers were synthesized by the cited literature methods, varying the starting materials as required.

[2] = cited from earlier work
[3] = forward titration with NaOH, no additive

For `O=P(O)(O)c1cccc(P(=O)(O)O)c1P(=O)(O)O` [benzene-1,2,3-triphosphonic acid], the missing proton ([1]; after addition of calcium nitrate, back titration with HCl) was “present ant titratable”, the “pH at which three protons are titrated” value [1, 3] was 2-4 pH and the “pH at which two protons are titrated” value [1, 3] was 7-11 pH.

In the case of `O=P(O)(O)c1ccccc1` [Phenyphosphonic acid], the “second pKa” value [2] is given as “over 7”.

In the case of `O=P(O)(O)O` [phosphate, phosphoric acid, reference compound], the “buffering capacity in the pH range 3-6” value ([1]; no additive) is reported as “no buffering capacity”, the “buffering capacity, lower range” value ([1]; no additive) is reported as 2-3 pH and the “buffering capacity, upper range” value ([1]; no additive) is reported as 7-8 pH.

For `O=P(O)(O)c1ccccc1P(=O)(O)O` [benzene-1,2-diphosphonic acid], the “third pKa value” ([1]; added strontium nitrate, compared to no additive) was “relatively unchanged”, the pKa ([1]; added strontium nitrate, read-out: first two pKa values) was 3 to 4 and the pKa ([1]; added strontium nitrate, read-out: fourth pKa value) was 9.5 to 10.5. The pKa ([1]; magnesium sulfate present, read-out: fourth pKa) was under 8, the pKa ([1]; one equivalent of boric acid, read-out: third and fourth pKa values) was 7 to 9 and the “buffering from the fourth pKa / fourth pKa value” ([1]; no additive) was “cannot be observed”. The extended buffering ([1]; one equivalent of boric acid, overlap with boric acid buffering) was 8-9 pH.

For `O=P(O)(O)c1ccc(P(=O)(O)O)c(P(=O)(O)O)c1` [benzene-1,2,4-triphosphonic acid], the “buffering at pH 4-6” value ([1]; pure triacid, no additive) was “completely absent” and the “buffering at pH 4-6” value ([1]; zinc nitrate added, back titration with HCl) was “present”.

For `O=P(O)(O)C(Cl)(Cl)P(=O)(O)O` [clodronic acid, dichloromethanediphosphonic acid, reference compound], the pKa ([1]; zinc nitrate (2 equivalents) added prior to titration, read-out: third and fourth pKa values) was 3.5 to 4.5, the “buffering range in the presence of magnesium” value [1] was 5-8 pH and the “buffering from the first two pKas / first two protons” value ([1]; no additive) was 2-3 pH. The “buffering from the fourth pKa / fourth pKa value” ([1]; no additive) was 9-10 pH and the “buffering from the third pKa / third proton” value ([1]; no additive) was 6-7 pH.

For `O=P(O)(O)c1cccc(P(=O)(O)O)c1` [benzene-1,3-diphosphonic acid], the pKa values observed ([1]; no additive) was “typical benzenephosphonic acid pKa values”.

For `O=P(O)(O)c1cccc(P(=O)(O)O)n1` [pyridine-2,6-diphosphonic acid], the “buffering range in the presence of magnesium” value [1] was 2-3 pH and the “buffering, titration with NaOH from pH 2 to 11” value ([1]; no additive) was “only modest buffering”.

In the case of `O=P(O)(O)C(F)(F)C(F)(F)F` [pentafluoroethylphosphonic acid], the “buffering from the first pKa” value ([1]; no additive) is reported as 2.5-3.5 pH and the “buffering from the second pKa” value ([1]; no additive) is reported as 4-5 pH.

With `O=P(O)(O)c1cccc(S(=O)(=O)O)c1` [3-phosphonobenzenesulfonic acid] the “buffering from first phosphonate proton” value ([1]; no additive) was 1.5-2 pH and the “moderate buffering from second phosphonate proton” value ([1]; no additive) was 6.5-7.5 pH.
